Patent publication US20230025891A1, “COMPOSITION OF NATURAL EXTRACTS HAVING ANTIBACTERIAL OR BACTERIOSTATIC ACTIVITY ALSO FOR GRAM-NEGATIVE BACTERIA” (priority 2019, published 2023)

Assays:
Solubility = assay type: physicochemical; conditions: qualitative
Protocol: Racemic usnic acid (CAS No. 125-46-2) is the bioactive secondary metabolite of lichens. The large-scale use of said usnic acid has always been limited due to the low solubility in water (0.06 mg/cm^3, at room temperature of 20° C. and 1 atmosphere pressure).
As mentioned above, in such compound (ci) the lipophilic cavity of the cyclodextrins (host) hosts D-usnic acid, or salt thereof, or mixtures thereof (i) (guest), through a reversible non-covalent interaction. As a matter of fact, during the formation of the inclusion compound (ci), no covalent bond is formed, and no covalent bond is broken. The mechanism which—at least primarily—promotes the formation of the inclusion compound is the release of solvent molecules (preferably water molecules), a highly enthalpic exchange reaction, from the cyclodextrin cavity (ii). […] Furthermore, the inclusion compound (ci) renders D-usnic acid (or a salt thereof) compatible in an aqueous solution or an aqueous dispersion or an aqueous suspension. When said aqueous solution or dispersion or suspension, containing said inclusion compound (ci), is applied manually—by spraying or mechanically—to a surface such as that of a wall or floor of a hospital or kindergarten or school room, said acid or a salt thereof contained in said inclusion compound (ci) is capable of being placed, adhering and coating said surface uniformly and homogeneously as if it were a coating paint.
Said D-usnic acid as enantiomer (i), preferably as pure enantiomer, is of natural origin and could be associated, as chemical structure, with that of the corresponding synthesis compound having CAS No. 7562-61-0, i.e. the dextrorotatory enantiomer of said acid. The D-usnic acid as the pure enantiomer of the present invention is soluble in chloroform and ethyl acetate. […] Said D-usnic acid as a pure enantiomer has a melting point comprised from 192° C. to 204° C., a flash point of 223° C. and a boiling point of 605° C. Preferably, said D-usnic acid salt as pure enantiomer is a sodium salt. Said inclusion compound (ci) preferably comprises solid particles of D-usnic acid as pure enantiomer, or salt thereof, or mixtures thereof (i). More preferably, said solid particles have an average particle distribution comprised from 0.01 μm to 50 μm, preferably comprised from 0.1 μm to 30 μm, more preferably comprised from 0.15 μm to 20 μm, even more preferably comprised from 0.2 μm to 15 μm. Said average particle distribution was determined and measured using a laser diffraction method, according to the GB/T 19077-2016 standard, for example with a Malvern Mastersizer 3000 instrument. Said standard is meant in the version valid at the priority date of the present patent application. […]

[1] = Observed anti-bacterial efficacy depending on origin and isomer of usnic acid; conditions: natural versus synthetic dextrorotatory form
Text: Therefore, the solubility of usnic acid in water has always represented, and still represents, a great limit to its use. Furthermore, as regards the efficacy of usnic acid (or of a relative salt thereof) in terms of anti-bacterial activity, the inventors of the present invention observed that it depends both on the (natural or synthetic) origin of usnic acid and on the type of isomer (levorotatory(−) and/or dextrorotatory(+)) used.

CC(=O)c1c(O)c(C)c(O)c2c1OC1=CC(=O)C(C(C)=O)C(=O)C12C (single isomer, unassigned; (+)) [D-usnic acid, (+)-Usnic acid 2,6-Diacetyl-7,9-dihydroxy-8,9-dimethyldibenzo[b,d]furan-1,3(2H,9bH)-dione]
solubility in chloroform (Solubility): soluble | solubility in ethanol (Solubility): moderately soluble | solubility in ethyl acetate (Solubility): soluble | solubility in water (Solubility): insoluble | stability, efficacy and activity compared with synthetic origin [1]: more stable, effective and active than the dextrorotatory form (+) of synthetic origin
